In patent publication US20240158348A1, “HERBICIDAL CYCLIC AMIDES N-SUBSTITUTED WITH A HALOALKYLSULFONYLANILIDE GROUP” (FMC Corporation, priority 2021, published 2024):

Tests used:
Format in all cases: in vivo
[1] = system: barnyardgrass (Echinochloa crus-galli); experiment: Test A preemergence, barnyardgrass; settings: 10 days
Description: (§1) Seeds of plant species selected from barnyardgrass (Echinochloa crus-galli), blackgrass (Alopecurus myosuroides), corn (Zea mays), foxtail, giant (giant foxtail, Setaria faberi), goosegrass (Eleusine indica), kochia (Bassia scoparia), oat, wild (wild oat, Avena fatua), pigweed, palmer (palmer amaranth, Amaranthus palmeri), pigweed, redroot (redroot pigweed, Amaranthus retroflexus), ragweed (common ragweed, Ambrosia artemisiifolia), ryegrass, Italian (Italian ryegrass, Lolium multiflorum), soybean (Glycine max), and wheat (Triticum aestivum) were planted into a blend of loam soil and sand and treated preemergence with a directed soil spray using test chemicals formulated in a non-phytotoxic solvent mixture which included a surfactant.
(§2) At the same time, plants selected from these crop and weed species and also galium (catchweed bedstraw, Galium aparine) and horseweed (Erigeron canadensis) were planted in pots containing the same blend of loam soil and sand and treated with postemergence applications of test chemicals formulated in the same manner. Plants ranged in height from 2 to 10 cm and were in the one- to two-leaf stage for the postemergence treatment. Treated plants and untreated controls were maintained in a greenhouse for 10 days, after which time all treated plants were compared to untreated controls and visually evaluated for injury. Plant response ratings, summarized in Table A, are based on a 0 to 100 scale where 0 is no effect and 100 is complete control. A dash (-) response means no test result.

[2] = system: pigweed, redroot (redroot pigweed, Amaranthus retroflexus); experiment: Test A preemergence, redroot pigweed; settings: 0 to 100 scale, 10 days
Description: as §1, §2

[3] = system: barnyardgrass (Echinochloa crus-galli); experiment: Test A postemergence, barnyardgrass; settings: 0 to 100 scale, 10 days
Description: as §1, §2

[4] = system: pigweed, redroot (redroot pigweed, Amaranthus retroflexus); experiment: Test A postemergence, redroot pigweed; settings: 0 to 100 scale, 10 days
Description: as §1, §2

soybean (Glycine max) = experiment: Test A preemergence, soybean; settings: 0 to 100 scale, 10 days
Description: as §1, §2

[5] = system: horseweed (Erigeron canadensis); experiment: Test A postemergence, horseweed; settings: 0 to 100 scale, 10 days
Description: as §1, §2

[6] = 125 g ai/ha, 0 to 100 scale (0 no effect, 100 complete control)

| Structure (SMILES) | Plant response rating, Barnyardgrass ([1]; 31 g ai/ha, 0 to 100 scale) | Plant response rating, Barnyardgrass [1, 6] | Plant response rating, Pigweed, Redroot ([2]; 31 g ai/ha) | Plant response rating, Pigweed, Redroot ([2]; 125 g ai/ha) | Plant response rating, Barnyardgrass ([3]; 31 g ai/ha) | Plant response rating, Barnyardgrass ([3]; 125 g ai/ha) | Plant response rating, Pigweed, Redroot ([4]; 31 g ai/ha) | Plant response rating, Pigweed, Redroot ([4]; 125 g ai/ha) | Plant response rating, Soybean (soybean (Glycine max); 31 g ai/ha) | Plant response rating, Soybean (soybean (Glycine max); 125 g ai/ha) | Plant response rating, Horseweed ([5]; 31 g ai/ha) | Plant response rating, Horseweed ([5]; 125 g ai/ha) |
| --- | --- | --- | --- | --- | --- | --- | --- | --- | --- | --- | --- | --- |
| C=CCOC1CCN(c2cc(NS(=O)(=O)C(F)(F)F)c(C)cc2C)C1=O (stereo not drawn) [Compound 2, N-[2,4-dimethyl-5-[2-oxo-3-(2-propen-1-yloxy)-1-pyrrolidinyl]phenyl]-1,1,1-trifluoromethanesulfonamide] | 0 | 100 | 90 | 100 | 30 | 90 | 90 | 90 | – | – | – | – |
| Cc1cc(C)c(N2CCC(OC3CCCC3)C2=O)cc1NS(=O)(=O)C(F)(F)F (stereo not drawn) [Compound 6, N-[5-[3-(cyclopentyloxy)-2-oxo-1-pyrrolidinyl]-2,4-dimethylphenyl]-1,1,1-trifluoromethanesulfonamide] | – | – | – | – | – | – | – | – | 50 | 90 | – | – |
| Cc1cc(C)c(N(COC(=O)C(C)(C)C)S(=O)(=O)C(F)(F)F)cc1N1CCC(OC2CCC2)C1=O (stereo not drawn) [Compound 8, [[5-[3-(cyclobutyloxy)-2-oxo-1-pyrrolidinyl]-2,4-dimethylphenyl][(trifluoromethyl)sulfonyl]amino]methyl 2,2-dimethylpropanoate] | – | – | – | – | – | – | – | – | 40 | 50 | 70 | 90 |
| Cc1cc(C)c(N2CCC(OC3CCC3)C2=O)cc1NS(=O)(=O)C(F)(F)F (stereo not drawn) [Compound 4, N-[5-[3-(cyclobutyloxy)-2-oxo-1-pyrrolidinyl]-2,4-dimethylphenyl]-1,1,1-trifluoromethanesulfonamide] | – | – | – | – | – | – | – | – | 70 | 100 | 90 | 100 |
| Cc1cc(C)c(N2CCC(OC3CC3)C2=O)cc1NS(=O)(=O)C(F)(F)F (stereo not drawn) [Compound 3, N-[5-[3-(cyclopropyloxy)-2-oxo-1-pyrrolidinyl]-2,4-dimethylphenyl]-1,1,1-trifluoromethanesulfonamide] | – | – | – | – | – | – | – | – | 30 | 80 | 70 | 90 |
| Cc1cc(C)c(N(COC(=O)C(C)(C)C)S(=O)(=O)C(F)(F)F)cc1N1CCC(OC2CC2)C1=O (stereo not drawn) [Compound 7, [[5-[3-(cyclopropyloxy)-2-oxo-1-pyrrolidinyl]-2,4-dimethylphenyl][(trifluoromethyl)sulfonyl]amino]methyl 2,2-dimethylpropanoate] | – | – | – | – | – | – | – | – | 20 | 40 | 80 | 90 |
| Cc1cc(C)c(N(COC(=O)C(C)(C)C)S(=O)(=O)C(F)(F)F)cc1N1CCC(OC2CCCC2)C1=O (stereo not drawn) [Compound 5, [[5-[3-(cyclopentyloxy)-2-oxo-1-pyrrolidinyl]-2,4-dimethylphenyl][(trifluoromethyl)sulfonyl]amino]methyl 2,2-dimethylpropanoate] | – | – | – | – | – | – | – | – | 0 | 20 | – | – |
| C#CCOC1CCN(c2cc(NS(=O)(=O)C(F)(F)F)c(C)cc2C)C1=O (stereo not drawn) [Compound 1, N-[2,4-dimethyl-5-[2-oxo-3-(2-propyn-1-yloxy)-1-pyrrolidinyl]phenyl]-1,1,1-trifluoromethanesulfonamide] | 80 | 100 | 90 | 100 | 80 | 90 | 80 | 90 | – | – | – | – |
